Data set [1] in a line: Cytotoxicity in HepG2 cells, Resazurin assay. The conditions noted are these: human, HepG2 cells, TOX-HepG2-4 d CC50 (μM), HepG2 cells incubated for 4 days, viability by Resazurin assay.
In the next data set the test system is HBV. Kind of data set: anti HBV activity, HepG2.117 cell line, intracellular HBV DNA by realtime PCR. Format: cell-based. The following applies: Hepatitis B virus, HepG2.117, 72 h, HepG2.117 cell line (Tet-off), 3 days of treatment, intracellular HBV DNA quantified by realtime PCR; read-out: HBV-AVE-HepG2.117 EC50. The essentials:
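Readout was intracellular HBV DNA by real-time PCR (HBV-specific primers and probe) after 3 days of compound exposure. Serial dilutions were tested in duplicate on HepG2.117 cells, a stable inducible HBV producer in which replication is switched on when doxycycline is absent.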

pEC50: −log10 of the molar value.

Consider `CC(C)[C@@H]1COc2c(cn(C)c2C(=O)Nc2ccc(F)c(F)c2)S(=O)(=O)N1` [Compound 27, (3R)—N-(3,4-difluorophenyl)-3-isopropyl-7-methyl-1,1-dioxo-3,4-dihydro-2H-pyrrolo[3,4-b][1,4,5]oxathiazepine-6-carboxamide], for which, in data set [1], the CC50 (commonly the concentration giving 50% cytotoxicity) at 4 days was > 25 µM. For the same compound, the pEC50 – broadly, −log10 of the EC50, conventionally taken in molar units – with HBV is 6.96.

With `CC1NS(=O)(=O)c2cn(C)c(C(=O)Nc3ccc(F)c(F)c3)c2OC1C` (centres unmarked) [Compound 28, N-(3,4-difluorophenyl)-3,4,7-trimethyl-1,1-dioxo-3,4-dihydro-2H-pyrrolo[3,4-b][1,4,5]oxathiazepine-6-carboxamide], in data set [1], the CC50 at 4 days is > 25 µM. In the data set with HBV, the pEC50 was 6.05.

For `C[C@@H](O)[C@H]1COc2c(cn(C)c2C(=O)Nc2ccc(F)c(F)c2)S(=O)(=O)N1` [Compound 33, (3R)—N-(3,4-difluorophenyl)-3-[(1R)-1-hydroxyethyl]-7-methyl-1,1-dioxo-3,4-dihydro-2H-pyrrolo[3,4-b][1,4,5]oxathiazepine-6-carboxamide], the CC50 at 4 days in data set [1] is > 25 µM. For the same compound, the pEC50 in the data set on HBV is 7.28.

`C[C@@H](O)[C@@H]1COc2c(cn(C)c2C(=O)Nc2ccc(F)c(F)c2)S(=O)(=O)N1` [Compound 34, (3S)—N-(3,4-difluorophenyl)-3-[(1R)-1-hydroxyethyl]-7-methyl-1,1-dioxo-3,4-dihydro-2H-pyrrolo[3,4-b][1,4,5]oxathiazepine-6-carboxamide]: the CC50 at 4 days in data set [1] was > 25 µM. For the same compound, the pEC50 in the data set with HBV is 7.25.

In the case of `C[C@H](O)[C@H]1COc2c(cn(C)c2C(=O)Nc2ccc(F)c(F)c2)S(=O)(=O)N1` [Compound 35, (3R)—N-(3,4-difluorophenyl)-3-[(1S)-1-hydroxyethyl]-7-methyl-1,1-dioxo-3,4-dihydro-2H-pyrrolo[3,4-b][1,4,5]oxathiazepine-6-carboxamide], in data set [1], the CC50 at 4 days was > 25 µM. In the data set on HBV, the pEC50 was 7.92.

As to `Cn1cc2c(c1C(=O)Nc1ccc(F)c(F)c1)OC[C@H]([C@H](O)c1ccccc1)NS2(=O)=O` [Compound 36, (3R)—N-(3,4-difluorophenyl)-3-[(R)-hydroxy(phenyl)methyl]-7-methyl-1,1-dioxo-3,4-dihydro-2H-pyrrolo[3,4-b][1,4,5]oxathiazepine-6-carboxamide], the CC50 at 4 days in data set [1] is > 25 µM. In addition, the pEC50 in the data set on HBV was 8.30.

As to `C[C@H](O)[C@@H]1COc2c(cn(C)c2C(=O)Nc2ccc(F)c(F)c2)S(=O)(=O)N1` [Compound 37, (3S)—N-(3,4-difluorophenyl)-3-[(1S)-1-hydroxyethyl]-7-methyl-1,1-dioxo-3,4-dihydro-2H-pyrrolo[3,4-b][1,4,5]oxathiazepine-6-carboxamide], the 50% cytotoxic concentration (CC50) at 4 days in data set [1] is > 25 µM. In addition, the pEC50 in the data set with HBV was 6.70.

Consider `Cn1cc2c(c1C(=O)Nc1ccc(F)c(F)c1)OC[C@H](Cc1cccnc1)NS2(=O)=O` [Compound 38, (3S)—N-(3,4-difluorophenyl)-7-methyl-1,1-dioxo-3-(3-pyridylmethyl)-3,4-dihydro-2H-pyrrolo[3,4-b][1,4,5]oxathiazepine-6-carboxamide], for which the CC50 at 4 days in data set [1] was > 25 µM. Also, the pEC50 with HBV is 8.30.

With `Cn1cc(C2COc3c(cn(C)c3C(=O)Nc3ccc(F)c(F)c3)S(=O)(=O)N2)cn1` (centres unmarked) [Compound 43, N-(3,4-difluorophenyl)-7-methyl-3-(1-methylpyrazol-4-yl)-1,1-dioxo-3,4-dihydro-2H-pyrrolo[3,4-b][1,4,5]oxathiazepine-6-carboxamide], the CC50 at 4 days in data set [1] was > 25 µM. Moreover, the pEC50 with HBV was 7.25.

Consider `CC(C)[C@H]1COc2c(ccc(F)c2C(=O)Nc2ccc(F)c(F)c2)S(=O)(=O)N1` [Compound 44, (3S)—N-(3,4-difluorophenyl)-7-fluoro-3-isopropyl-1,1-dioxo-3,4-dihydro-2H-5,1λ^6,2-benzoxathiazepine-6-carboxamide], for which, in data set [1], the CC50 at 4 days was > 25 µM. The pEC50 with HBV was 6.77.

On to `CC(C)[C@H]1COc2c(ccc(F)c2C(=O)Nc2ccc(F)c(C#N)c2)S(=O)(=O)N1` [Compound 45, (3S)—N-(3-cyano-4-fluoro-phenyl)-7-fluoro-3-isopropyl-1,1-dioxo-3,4-dihydro-2H-5,1λ^6,2-benzoxathiazepine-6-carboxamide], for which the CC50 at 4 days in data set [1] was > 25 µM. In addition, the pEC50 with HBV was 6.64.

For `Cc1ccc(NC(=O)c2c(F)ccc3c2OC[C@@H](C(C)C)NS3(=O)=O)cc1F` [Compound 46, (3R)-7-fluoro-N-(3-fluoro-4-methyl-phenyl)-3-isopropyl-1,1-dioxo-3,4-dihydro-2H-5,1λ^6,2-benzoxathiazepine-6-carboxamide], the CC50 at 4 days in data set [1] is > 25 µM. The pEC50 in the data set with HBV was 6.48.

Regarding `Cn1cc2c(c1C(=O)Nc1ccc(F)c(F)c1)CCC(C(F)(F)F)NS2(=O)=O` (centres unmarked) [Compound 47, N-(3,4-difluorophenyl)-7-methyl-1,1-dioxo-3-(trifluoromethyl)-2,3,4,5-tetrahydropyrrolo[3,4-f]thiazepine-6-carboxamide], in data set [1], the CC50 at 4 days was > 25 µM. The pEC50 with HBV is 7.77.

With `CC(C)[C@@H]1COc2c(ccc(F)c2C(=O)Nc2ccc(F)c(F)c2)S(=O)(=O)N1` [Compound 48, (3R)—N-(3,4-difluorophenyl)-7-fluoro-3-isopropyl-1,1-dioxo-3,4-dihydro-2H-5,1λ^6,2-benzoxathiazepine-6-carboxamide], in data set [1], the CC50 at 4 days was > 25 µM. Further, the pEC50 in the data set on HBV is 7.08.

For `CC(C)[C@@H]1COc2c(ccc(F)c2C(=O)Nc2ccc(F)c(C#N)c2)S(=O)(=O)N1` [Compound 49, (3R)—N-(3-cyano-4-fluoro-phenyl)-7-fluoro-3-isopropyl-1,1-dioxo-3,4-dihydro-2H-5,1λ^6,2-benzoxathiazepine-6-carboxamide], the CC50 at 4 days in data set [1] is > 25 µM. Also, the pEC50 in the data set with HBV is 6.51.

On to `Cn1cc2c(c1C(=O)Nc1ccnc(C(F)(F)F)c1)C=CC(C(F)(F)F)NS2(=O)=O` (centres unmarked) [Compound 58, 7-methyl-1,1-dioxo-3-(trifluoromethyl)-N-[2-(trifluoromethyl)-4-pyridyl]-2,3-dihydropyrrolo[3,4-f]thiazepine-6-carboxamide], for which the CC50 at 4 days in data set [1] was > 25 µM. Also, the pEC50 with HBV is 6.54.

With `Cn1cc2c(c1C(=O)Nc1ccc(F)c(F)c1)OC[C@@H](C(F)(F)F)NS2(=O)=O` [Compound 61, (3S)—N-(3,4-difluorophenyl)-7-methyl-1,1-dioxo-3-(trifluoromethyl)-3,4-dihydro-2H-pyrrolo[3,4-b][1,4,5]oxathiazepine-6-carboxamide], the cytotoxic concentration (CC50) at 4 days in data set [1] was > 25 µM. In addition, in the data set with HBV, the pEC50 is 7.13.

Consider `CO[C@H](C)[C@H]1COc2c(cn(C)c2C(=O)Nc2ccc(F)c(F)c2)S(=O)(=O)N1` [Compound 62, (3R)—N-(3,4-difluorophenyl)-3-[(1R)-1-methoxyethyl]-7-methyl-1,1-dioxo-3,4-dihydro-2H-pyrrolo[3,4-b][1,4,5]oxathiazepine-6-carboxamide], for which, in data set [1], the CC50 at 4 days is > 25 µM. The pEC50 in the data set with HBV was 8.05.

`Cn1cc2c(c1C(=O)Nc1ccc(F)c(F)c1)OC[C@@H]([C@@H](O)c1ccccc1)NS2(=O)=O` [Compound 63, (3S)—N-(3,4-difluorophenyl)-3-[(S)-hydroxy(phenyl)methyl]-7-methyl-1,1-dioxo-3,4-dihydro-2H-pyrrolo[3,4-b][1,4,5]oxathiazepine-6-carboxamide]: the CC50 at 4 days in data set [1] was > 25 µM. In addition, the pEC50 in the data set with HBV is 6.62.

In the case of `C[C@H](O)[C@H]1COc2c(cn(C)c2C(=O)Nc2ccc(F)c(C(F)F)c2)S(=O)(=O)N1` [Compound 64, (3R)—N-[3-(difluoromethyl)-4-fluoro-phenyl]-3-[(1S)-1-hydroxyethyl]-7-methyl-1,1-dioxo-3,4-dihydro-2H-pyrrolo[3,4-b][1,4,5]oxathiazepine-6-carb oxamide], in data set [1], the CC50 at 4 days is > 25 µM. Further, the pEC50 in the data set with HBV is 8.10.

As to `C[C@H](O)[C@H]1COc2c(cn(C)c2C(=O)Nc2ccc(F)c(C#N)c2)S(=O)(=O)N1` [Compound 65, (3R)—N-(3-cyano-4-fluoro-phenyl)-3-[(1S)-1-hydroxyethyl]-7-methyl-1,1-dioxo-3,4-dihydro-2H-pyrrolo[3,4-b][1,4,5]oxathiazepine-6-carboxamide], the CC50 at 4 days in data set [1] was > 25 µM. The pEC50 in the data set with HBV is 8.15.

As to `C[C@H](O)[C@H]1COc2c(cn(C)c2C(=O)Nc2ccnc(Br)c2)S(=O)(=O)N1` [Compound 66, (3R)—N-(2-bromo-4-pyridyl)-3-[(1S)-1-hydroxyethyl]-7-methyl-1,1-dioxo-3,4-dihydro-2H-pyrrolo[3,4-b][1,4,5]oxathiazepine-6-carboxamide], in data set [1], the 50% cytotoxic concentration (CC50) at 4 days was > 25 µM. Besides, the pEC50 in the data set on HBV is 7.33.

For the compound `CC1CNc2c(cn(C)c2C(=O)Nc2ccc(F)c(F)c2)S(=O)(=O)N1` (centres unmarked) [Compound 67, N-(3,4-difluorophenyl)-3,7-dimethyl-1,1-dioxo-2,3,4,5-tetrahydropyrrolo[3,4-f][1,2,5]thiadiazepine-6-carboxamide], the CC50 at 4 days in data set [1] was > 25 µM. Moreover, the pEC50 in the data set with HBV is 7.16.

Consider `C[C@@H](O)[C@H]1C=Cc2c(cn(C)c2C(=O)Nc2ccc(F)c(F)c2)S(=O)(=O)N1` [Compound 69, (3R)—N-(3,4-difluorophenyl)-3-[(1R)-1-hydroxyethyl]-7-methyl-1,1-dioxo-2,3-dihydropyrrolo[3,4-f]thiazepine-6-carboxamide], for which the CC50 at 4 days in data set [1] is > 25 µM. For the same compound, the pEC50 in the data set with HBV is 7.48.

Consider `C[C@@H](O)[C@H]1CCc2c(cn(C)c2C(=O)Nc2ccc(F)c(F)c2)S(=O)(=O)N1` [Compound 70, (3R)—N-(3,4-difluorophenyl)-3-[(1R)-1-hydroxyethyl]-7-methyl-1,1-dioxo-2,3,4,5-tetrahydropyrrolo[3,4-f]thiazepine-6-carboxamide], for which, in data set [1], the CC50 at 4 days was > 25 µM. Also, in the data set with HBV, the pEC50 is 7.85.

The record behind these values is patent publication US10875876B2, “Cyclized sulfamoylarylamide derivatives and the use thereof as medicaments for the treatment of hepatitis B” (priority 2015, dated 2020).
